Experimental data from patent publication US20190048052A1, “ANTI-MICROBIAL PEPTIDES AND COATINGS” (Board of Regents of the University of Nebraska, priority 2016, published 2019).
In brackets after ≈: the same amount, converted by molar mass. Read-outs that look alike come from different tables or passages of the source. Residues, ends and D or L forms follow the SMILES beside them.

Experiments:
[1] = test system: E. coli K12; assay type: cell-based, Escherichia coli; conditions: K12
Procedure, shortened: (§1)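 Broth microdilution: exponential-phase bacteria at 10^6 CFU incubated with serially diluted peptides ~20 hours at 37° C, read at 630 nm to give MICs. For S. aureus USA300, effects of up to 10% human serum, pH 6.8/7.4/8.0 and 150 mM NaCl also tested.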

[2] = MTS cytotoxicity assay; assay type: cell-based; conditions: human
Procedure: (§2) HeLa CCL-2 epithelial adenocarcinoma cells from American Type Culture Collection (ATCC) were maintained in DMEM high glucose media with 4 mM L-glutamine (NyClone) and 100 U/mL penicillin, 100 μg/mL streptomycin (pen/strep) (Life Technologies), and 10% (v/v) inactivated fetal bovine serum (FBS) (NyClone). Cells were grown in 5% CO2 at 37° C. and were detached from the culturing dish at 80% confluency using 0.025% trypsin-EDTA (NyClone) treatment. Peptide influence on the cell viability was estimated by using the MTS assay according to the manufacturer's protocol (MTS, CellTiter96® AQ One Solution Cell Proliferation Assay, Promega) with minor modifications and as described elsewhere (Mishra et al. (2015) RSC Advances 5:59758-59769). In short, cells were cultured in flat bottomed 96 well microtiter plates (Corning Life Science) at a seeding density of 20,000 cells/well. At confluence ˜100% achieved after 20-24 hours of cultivation, the cells were washed twice with 100 μL Dulbecco's Phosphate Buffered Saline (Life Technologies). Further, 90 μL of DMEM media with 10% FBS, pen/step was added before exposure to 10 μL of the peptide solution in the concentration range 12.5-100 μM. Plates were incubated at 37° C. After 1 hour, 10 μL MTS, CellTiter96® was added. Plates were further incubated for another 2 hours at 37° C. and finally, the absorbance was measured on ChroMate® reader (Awareness Technology) at 492 nm. Culture medium and 0.2% SDS were used as negative and positive controls, respectively.
Human skin HaCaT (immortalized keratinocyte from AddexBio, T0020001) and kidney HEK293 cells were also cultivated for cytotoxicity evaluation of the peptides in a similar manner.

[3] = test system: C. tropicalis ATCC 13803; assay type: cell-based, Candida tropicalis; conditions: ATCC 13803, 48 h
Procedure: (§3) Fungal strains used in this study include Candida albicans ATCC 10231, C. glabrata ATCC 2001 and C. tropicalis ATCC 13803. The fungi were grown in Remel Dex broth (Thermo Fisher Scientific, KS). Antifungal assays were conducted essentially as described for antibacterial assays above, except for a higher starting density at an OD600 0.02 and a longer incubation time of ˜48 hours prior to microplate reading (Mishra et al. (2015) RSC Advances 5:59758-59769).

[4] = test system: S. aureus USA300; assay type: cell-based, Staphylococcus aureus; conditions: USA300
Procedure: The minimal bactericidal concentration (MBC) was determined by plating 50 μl of the content in the clear wells of the above MIC assays. MBC was determined on the petri dishes without bacterial colony formation after overnight growth (Wang et al. (2012) Biochemistry 51:653-664).

[5] = test system: S. aureus Newman; assay type: cell-based, Staphylococcus aureus
Procedure, shortened: as §1

[6] = test system: S. aureus Mu50; assay type: cell-based, Staphylococcus aureus
Procedure, shortened: as §1

[7] = test system: S. aureus UAMS-1; assay type: cell-based, Staphylococcus aureus
Procedure, shortened: as §1

[8] = test system: S. aureus USA300; assay type: cell-based, Staphylococcus aureus; conditions: for Antimicrobial activity (MIC) 150 mM NaCl / Antimicrobial activity (MIC) USA300 / MIC S. aureus USA300: USA300; for Antimicrobial activity (MIC) pH 6.8: USA300, pH 6.8; for Antimicrobial activity (MIC) Normal medium (pH 7.4): USA300, pH 7.4; for Antimicrobial activity (MIC) pH 8: USA300, pH 8
Procedure, shortened: as §1

[9] = test system: Candida albicans ATCC 10231; assay type: cell-based; conditions: ATCC 10231, 48 h
Procedure: as §3

[10] = Hemolytic assay; assay type: cell-based; conditions: red blood cells, hemolysis
Procedure: Hemolytic analysis of selected peptides was performed using an established protocol (Mishra et al. (2015) RSC Advances 5:59758-59769). Briefly, human blood cells (UNMC Blood Bank) were washed three times with phosphate buffer saline (PBS) and diluted to a 2% solution. After peptide treatment, incubation at 37° C. for one hour, and centrifugation at 13,000 rpm, aliquots of the supernatant were transferred to a fresh 96-well microplate. To assess peptide cytotoxicity, the amount of hemoglobin released was measured at 545 nm. The percent lysis was calculated by assuming 100% release when human blood cells were treated with 1% TRITON™ X-100, and 0% release when incubated with PBS buffer. The hemolytic assays using chicken, bovine, and porcine blood cells (Lampire Biological Laboratories, Inc.) were performed in the same manner.

[11] = test system: C. glabrata ATCC 2001; assay type: cell-based, Candida glabrata; conditions: ATCC 2001, 48 h
Procedure: as §3

[12] = test system: S. epidermidis 1457; assay type: cell-based, Staphylococcus epidermidis
Procedure, shortened: as §1

[13] = test system: B. subtilis 168; assay type: cell-based, Bacillus subtilis
Procedure, shortened: as §1

[14] = MTS cytotoxicity assay; assay type: cell-based; conditions: human, HeLa CCL-2 cells
Procedure: as §2

[15] = chicken, read-out: LC50 Chicken RBCs
[16] = human, read-out: LC50 Human RBCs
[17] = pig, read-out: LC50 Porcine RBCs

SMILES: CC[C@H](C)[C@H](NC(=O)[C@H](CCCCN)NC(=O)[C@H](CCCNC(=N)N)NC(=O)[C@H](CC(C)C)NC(=O)[C@H](Cc1c[nH]c2ccccc12)NC(=O)[C@H](Cc1c[nH]c2ccccc12)NC(=O)[C@@H](N)Cc1c[nH]c2ccccc12)C(=O)N[C@@H](Cc1c[nH]c2ccccc12)C(N)=O [TetraF2W-RK, WWWLRKIW] (H-WWWLRKIW-NH2; N-terminus assumed)
- MIC E. coli K12 [1]: 25 µM (≈ 31.8 µg/mL)
- CC50 at 1 hour ([2]; HEK293 cells): 60 µM
- CC50 at 1 hour ([2]; HaCaT cells): 60 µM
- MIC Candida tropicalis [3]: 3.1 to 6.2 µM
- MBC S. aureus USA300 [4]: 12.5 µM (≈ 15.9 µg/mL)
- Antimicrobial activity (MIC) Newman [5]: 3.1 µM
- Antimicrobial activity (MIC) Mu50 [6]: 3.1 µM
- Antimicrobial activity (MIC) UAMS-1 [7]: 6.2 µM
- change in MIC on drop of pH from 8 to 6.8 ([8]; S. aureus USA300): two-fold
- Antimicrobial activity (MIC) 150 mM NaCl [8]: 3.1 µM
- Antimicrobial activity (MIC) USA300 [8]: 3.1 µM
- MIC S. aureus USA300 [8]: 3.1 µM (≈ 3.94 µg/mL)
- Antimicrobial activity (MIC) pH 6.8 [8]: 6.2 μM
- Antimicrobial activity (MIC) Normal medium (pH 7.4) [8]: 3.1 μM
- Antimicrobial activity (MIC) pH 8 [8]: 3.1 μM
- MIC Candida albicans [9]: 12.5 µM (≈ 15.9 µg/mL)
- HC50 at 1 hour [10, 15]: 35 µM
- HC50 at 1 hour [10, 16]: 30 µM
- HC50 at 1 hour [10, 17]: 40 µM
- MIC Candida glabrata [11]: 12.5 µM (≈ 15.9 µg/mL)
- MIC S. epidermidis 1457 [12]: 6.2 µM (≈ 7.89 µg/mL)
- MIC B. subtilis 168 [13]: 6.2 µM (≈ 7.89 µg/mL)
- CC50 at 1 hour [14]: > 100 µM

SMILES: CC[C@H](C)[C@H](NC(=O)[C@H](CCCNC(=N)N)NC(=O)[C@H](CCCNC(=N)N)NC(=O)[C@H](CC(C)C)NC(=O)[C@H](Cc1c[nH]c2ccccc12)NC(=O)[C@H](Cc1c[nH]c2ccccc12)NC(=O)[C@@H](N)Cc1c[nH]c2ccccc12)C(=O)N[C@@H](Cc1c[nH]c2ccccc12)C(N)=O [TetraF2W-RR, WWWLRRIW] (H-WWWLRRIW-NH2; N-terminus assumed)
- MIC E. coli K12 [1]: 25 µM (≈ 32.5 µg/mL)
- CC50 at 1 hour ([2]; HEK293 cells): 70 µM
- CC50 at 1 hour ([2]; HaCaT cells): 70 µM
- MIC Candida tropicalis [3]: 3.1 µM (≈ 4.03 µg/mL)
- MBC S. aureus USA300 [4]: 3.1 µM (≈ 4.03 µg/mL)
- Antimicrobial activity (MIC) Newman [5]: 3.1 µM
- Antimicrobial activity (MIC) Mu50 [6]: 3.1 µM
- Antimicrobial activity (MIC) UAMS-1 [7]: 6.2 µM
- change in MIC on drop of pH from 8 to 6.8 ([8]; S. aureus USA300): two-fold
- fold more potent than temporin-SHf (anti-MRSA) ([8]; S. aureus USA300): 8 fold
- Antimicrobial activity (MIC) 150 mM NaCl [8]: 3.1 µM
- Antimicrobial activity (MIC) USA300 [8]: 1.56 to 3.1 µM
- MIC S. aureus USA300 [8]: 1.6 to 3.1 µM
- Antimicrobial activity (MIC) pH 6.8 [8]: 6.2 μM
- Antimicrobial activity (MIC) Normal medium (pH 7.4) [8]: 1.56-3.1 μM
- Antimicrobial activity (MIC) pH 8 [8]: 3.1 μM
- MIC Candida albicans [9]: 25 µM (≈ 32.5 µg/mL)
- HC50 at 1 hour [10, 15]: 55 µM
- HC50 at 1 hour [10, 16]: 20 µM
- HC50 at 1 hour [10, 17]: 40 µM
- MIC Candida glabrata [11]: >25 µM
- MIC S. epidermidis 1457 [12]: 6.2 to 12.5 µM
- MIC B. subtilis 168 [13]: 3.1 to 6.2 µM
- CC50 at 1 hour [14]: 60 µM
